pIC50: −log10 of the molar value. Like-named read-outs stand apart in the source and are kept apart here.
How the values were obtained:
[1] = test system: NF-κB in spleen cells of ICR mice; test: activated NF-κB in spleen cell nuclei after LPS, Example 8; format: in vivo, mouse; details: about 40 mg/kg i.p. 24 h before and 1 h after LPS; spleens 1.5 hours after LPS
Description: The capacity of selected compounds to treat LPS induced shock/inflammation in mice was examined by a protocol similar to the protocol described above. Five groups of three ICR mice weighing about 30 g were each treated by intraperitoneal injection with 120 μL vehicle (30% sulfobutylether-cyclodextrin in water), androst-5-ene-3α,7β,16α,17β-tetrol in vehicle, androst-5-ene-3β,4β,16α,17β-tetrol in vehicle or 4β-acetoxyandrost-5-ene-3β,16α,17β-triol in vehicle. All drug and vehicle formulations were solutions, not suspensions. The sulfobutylether-cyclodextrin was obtained commercially (Captisol™, www.cyclexinc.com). There were two vehicle control groups one group received vehicle alone and the other received vehicle plus LPS. […] Drug was administered at about 40 mg/kg (1.2 mg drug/animal for each administration of the drugs). Spleens were harvested from the animals at 1.5 hours after injection of LPS and spleen cells were lysed and assayed for activated NF-κB by isolating nuclei from spleen cells and measuring NF-κB from the lysed nuclei. […] The level of activated NF-κB in spleen cells from the animals that were treated with vehicle and no LPS, was essentially the same as the activated NF-κB in spleen cells from drug treated animals.

NF-κB = test: NF-κB-bla THP-1 β-lactamase reporter assay; format: cell-based, human; details: 50% of the maximum inhibition the compound can induce, averages of 2-4 assays
MG-63 cells = test: reversal of glucocorticoid effects in MG-63 osteosarcoma cells; format: cell-based, human
[2] = test system: human peripheral blood mononuclear cells (PBMC); test: human mixed lymphocyte reaction (MLR); format: cell-based; details: 6 days
Description: Human mixed lymphocyte reaction (MLR). The capacity of 3β,16α-dihydroxy-17-oxoandrostane, 3β,17β-dihydroxy-16-oxoandrostane, 17α-ethynylandrost-5-ene-3β,7β,17β-triol, and 17β-aminoandrost-5-ene-3β-ol to affect antigen specific stimulation in which human T lymphocytes respond to a specific foreign antigen (major histocompatibility complex).
Blood samples were obtained from 3 (2 males, […]) fasting, healthy human volunteers of 23-31 years old. […] The subjects were bled between […] to limit possible fluctuations in the circulating levels of hormones or cytokines that could have influenced the in vitro responses of their lymphocytes. Peripheral blood mononuclear cells (PBMC) were isolated by centrifugation on Ficoll-Hypaque (density 1.077, Biochrom AG, Berlin, Germany) gradients and resuspended in culture medium (RPMI 1640 supplemented with 2 mM L-glutamine, penicillin (100 U/mL) and streptomycin ([…]) (Invitrogen s.rl., Milan, Italy). Autologous (responder) inactivated plasma was used at 10%. Five hundred thousand responder PBMC (PBMCr) and 500,000 allogeneic irradiated (30 Gy) stimulator PBMC (PBMCs) were mixed at a ratio of 1:1 in 200 μL medium and cultured for 6 days in flat bottom 96 well plates (Nunc, Roskilde, Denmark) at a concentration of 300 nM or 30 nM for each of the 4 compounds. The compounds were dissolved in ethanol and then diluted to the desired concentration with culture medium leading to a final solution containing 0.01% of ethanol. This vehicle was used as control. Controls also included PBMCr and PBMCs cultured separately. During the last 8 hours of the culture period the PBMC were pulsed with 1 μCi/well [^3H] thymidine (Amersham, Milan, Italy). The cells were then harvested and radioactivity incorporation measured with a beta cell counter. The mean cpm of quadruplicate wells was calculated. Proliferation of T cells was expressed as a stimulation index: SI=cpm (PMBCs xPBMCr)/cpm (PBMCr)+cpm (PBMCs). Statistical analysis was performed using the Student's t test. The cpm obtained from quadruplicate of each test compound were compared to proliferative responses obtained in control PBMCr and PBMCs cultured in the presence of the vehicle. Differences were considered significant at p<0.05.

Balb/c mice, ear burn = test: thermal injury model using mouse ear tissue; format: in vivo; details: injection in propylene glycol after burn
Description: A thermal injury model using mouse ear tissue was used to characterize compounds for their capacity to treat inflammation associated with thermal trauma. […] Groups of Balb/c mice, approximately nine weeks old were given an identifying mark and then divided into control and treated subgroups. The thickness of the ear to be immersed in hot water was recorded, and then the entire ear of the anesthetized mouse was dipped into 52° C. water for 24 seconds. Each mouse was returned to its cage after an injection of either the propylene glycol vehicle (control) or 100 mg of compound in propylene glycol. Ear swelling changes were monitored on individual mice at pre-burn, and at various times after thermal injury. Ear swelling changes were monitored on individual mice at pre-injury and at 1, 3, 6, 9, 12, 18, 24 and 48 hours after thermal injury. Animals were treated with 100 mg of dehydroepiandrosterone (DHEA) dissolved in propylene glycol.

[3] = test system: CD1 male mice, carrageenan-λ induced pleurisy; test: carrageenan-λ induced lung (pleural cavity) inflammation in mice; format: in vivo, mouse; details: 40 mg/kg by oral gavage, about 0.5 mg/mouse
female SJL/J mice, EAE = test: experimental allergic encephalomyelitis (EAE), PLP 139-151, Example 6; format: in vivo, mouse; details: 5 mg/kg daily by oral gavage, through day 26
Excerpt: Treatment of autoimmune neurodegeneration. Three compounds, 17β-aminoandrost-5-ene-3β-ol, 17β-dimethylaminoandrost-5-ene-3β-ol and 17β-methylaminoandrost-5-ene-3β-ol were characterized for their capacity to ameliorate experimental allergic encephalomyelitis (EAE) in mice. This demyelinating condition is extensively used as a model for multiple sclerosis in humans and for testing of new therapies for treating multiple sclerosis, e.g., B. F. Bebo Jr. et al., J. Neurosci. Res. 52:420-426 1998; R. R. Voskuhl et al., Neuroscientist, 7:258-270 2001; H. Offner et al., J. Neuroimmunol., 130:128-139 2002.
In this protocol, the compounds were administered to female SJL/J mice by oral gavage at the onset of disease symptoms. An antigen was used to initiate the EAE condition in the mice. […] Immunization with this peptide antigen initiates an autoimmune Th1 mediated demyelinating disease of the central nervous system. The antigen was prepared by solid phase synthesis and purified by high-performance liquid chromatography. […] The immunization protocol was subcutaneous injection over four sites on the hind flank on day 0. After immunization. the mice were assessed daily for clinical signs of EAE using the following scale: 0=no clinical signs or symptoms; 1=limp tail; 2=mild hind limb weakness and limp tail; 3=moderate hind limb weakness and limp tail or mild ataxia; 4=severe hind limb weakness and mild forearm weakness with moderate ataxia; 5=paraplegia with no more than moderate forelimb weakness; 6=paraplegia with severe forelimb weakness or severe ataxia or moribund condition.
Mice in the vehicle control group began to show observable symptoms of EAE at about 10-11 days after immunization with the PLP antigen, which is typical for the EAE disease model. The animals were dosed daily with 17β-aminoandrost-5-ene-3β-ol, 17β-dimethylaminoandrost-5-ene-3β-ol or 17β-methylaminoandrost-5-ene-3β-ol by oral gavage beginning at day 1, which was 1 day after immunization.

[4] = metabolic stability in liver microsomes: human
Description: (§1) The protocol was performed as follows. […] (2) Set up samples as follows. […] (4) The internal standard/acetonitrile solution.

[5] = metabolic stability in liver microsomes: mouse; details: 10 min
Description: as §1

[6] = metabolic stability in liver microsomes, species not stated; format: in vitro ADME; details: compared with androst-5-ene-3β,17β-diol reference compound
Description: as §1

SMILES: C[C@]12CC[C@H]3[C@@H](CC=C4[C@@H](O)[C@@H](O)CC[C@@]43C)[C@@H]1C[C@@H](O)[C@@H]2O [3β,4β,16α,17β-tetrahydroxyandrost-5-ene]
- decrease of NF-κB activation compared to LPS+vehicle control group [1]: about 50%

SMILES: CC12CCC(O)CC1=CC(=O)C1C2CCC2(C)C1CCC2(C)O (stereo not drawn) [3β,17β-dihydroxy-7-oxo-17α-methylandrost-5-ene]
- pIC50 (NF-κB; after LPS stimulation, read-out: IC50 for inhibition of NF-κB activation): < 5.00
- osteoprotegerin levels in the presence of 30 nM dexamethasone (MG-63 cells; 100 nM compound): increased osteoprotegerin levels

SMILES: C[C@]12CC[C@H]3[C@@H](CCC4C[C@@H](O)CC[C@@]43C)[C@@H]1CC(=O)[C@@H]2O (stereo partly drawn) [3β,17β-dihydroxy-16-oxoandrostane]
- immune suppression in the MLR ([2]; either 300 nM or 30 nM, p>0.05): not appreciably immune suppressive

SMILES: CC(=O)O[C@@H]1C2=CC[C@H]3[C@@H]4C[C@@H](O)[C@H](O)[C@@]4(C)CC[C@@H]3[C@@]2(C)CC[C@@H]1O [4β-acetoxy-3β,16α,17β-trihydroxyandrost-5-ene]
- decrease of NF-κB activation compared to LPS+vehicle control group [1]: about 50%

SMILES: C[C@]12CC[C@H](O)CC1=CC[C@@H]1[C@@H]2CC[C@]2(C)C(=O)[C@H](Br)C[C@@H]12 [16α-bromodehydroepiandrosterone]
- protection against progressive ischemia after thermal injury to the ear (Balb/c mice, ear burn): protected treated animals against much of the ischemic consequences

SMILES: C[C@]12CC[C@H](O)CC1=CC[C@@H]1[C@@H]2CC[C@]2(C)C(=O)[C@H](Cl)C[C@@H]12 [16α-chlorodehydroepiandrosterone]
- protection against progressive ischemia after thermal injury to the ear (Balb/c mice, ear burn): only slightly protective

SMILES: C[C@]12CC[C@H](O)CC1=CC[C@@H]1[C@@H]2CC[C@]2(C)C(=O)[C@H](O)C[C@@H]12 [16α-hydroxydehydroepiandrosterone]
- protection against progressive ischemia after thermal injury to the ear (Balb/c mice, ear burn): less protective

SMILES: C[C@]12CC[C@H]3[C@@H](CC=C4C[C@@H](O)CC[C@@]43C)[C@@H]1CC[C@@H]2N [17β-aminoandrost-5-ene-3β-ol]
- anti-inflammation activity versus vehicle controls [3]: statistically significant anti-inflammation activity
- activity on clinical severity of EAE symptoms (female SJL/J mice, EAE): active
- immune suppression in the MLR ([2]; 300 nM, p<0.05): moderately immune suppressive

SMILES: CN(C)[C@H]1CC[C@H]2[C@@H]3CC=C4C[C@@H](O)CC[C@]4(C)[C@H]3CC[C@]12C [17β-dimethylaminoandrost-5-ene-3β-ol]
- activity on clinical severity of EAE symptoms (female SJL/J mice, EAE): active

SMILES: CN[C@H]1CC[C@H]2[C@@H]3CC=C4C[C@@H](O)CC[C@]4(C)[C@H]3CC[C@]12C [17β-methylaminoandrost-5-ene-3β-ol]
- activity on clinical severity of EAE symptoms (female SJL/J mice, EAE): active

SMILES: C[C@]12CC[C@H]3[C@@H]([C@H](O)C=C4C[C@H](O)CC[C@@]43C)[C@@H]1C[C@@H](O)[C@@H]2O [androst-5-ene-3α,7α,16α,17β-tetrol]
- parent remaining human microsomes ([4]; 10 min): 100% (10 min)
- parent remaining mouse microsomes [5]: 100% (10 min)

SMILES: C[C@]12CC[C@H]3[C@@H]([C@H](O)C=C4C[C@@H](O)CC[C@@]43C)[C@@H]1C[C@@H](O)[C@@H]2O [androst-5-ene-3β,7α,16α,17β-tetrol]
- parent remaining human microsomes ([4]; 10 min): 100% (10 min)
- parent remaining mouse microsomes [5]: 100% (10 min)
- pIC50 (NF-κB; Homo sapiens, THP-1, read-out: IC50 for inhibition of NF-κB activation, after LPS stimulation): < 5.00
- osteoprotegerin levels in the presence of 30 nM dexamethasone (MG-63 cells; 10 nM compound): near normal osteoprotegerin levels

SMILES: C[C@]12CC[C@H]3[C@@H](CC=C4C[C@@H](O)CC[C@@]43C)[C@@H]1C[C@@H](O)[C@@H]2O [androst-5-ene-3β,16α,17β-triol]
- metabolism by microsomes [6]: metabolized by microsomes at a rate similar to the androst-5-ene-3β,17β-diol reference compound

SMILES: C[C@]12CC[C@H]3[C@@H](CC=C4C[C@@H](O)CC[C@@]43C)[C@@H]1CC[C@@H]2O [androst-5-ene-3β,17β-diol]
- protection against progressive ischemia after thermal injury to the ear (Balb/c mice, ear burn): protected treated animals against much of the ischemic consequences
- parent remaining human microsomes ([4]; 10 min): 39% (10 min)
- parent remaining human microsomes ([4]; 90 min): 30% (90 min)
- parent remaining mouse microsomes [5]: 25% (10 min)
